Experimental data published in PubChem BioAssay AID256 (DTP/NCI, 2004).
“And” between values parts separate entries of the source, which are not always exact repeats. Equal entries are not always repeated. Toxic doses and inconclusive results are not listed.

Test system: CD2F1 mice, L1210 leukemia ip, survival T/C
Experiment: NCI In Vivo Anticancer Drug Screen. Data for tumor model L1210 Leukemia (intraperitoneal) in CD2F1 (CDF1) mice
Conditions: higher = longer survival
Procedure, shortened: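 In this screen, transplantable tumors were grown in mice given either the compound or its vehicle. Results were expressed as the treated measurement relative to the control measurement.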

[1] = endpoint: mean survival time, dose: 50.0 mg/kg/injection, schedule: Q01DX009 (ip), vehicle: saline with Tween-80
[2] = endpoint: mean survival time, dose: 100.0 mg/kg/injection, schedule: Q01DX009 (ip), vehicle: saline with Tween-80
[3] = endpoint: mean survival time, dose: 200.0 mg/kg/injection, schedule: Q01DX009 (ip), vehicle: saline with Tween-80
[4] = endpoint: mean survival time, dose: 100.0 mg/kg/injection, schedule: Q04DX003 (ip), vehicle: saline
[5] = endpoint: mean survival time, dose: 100.0 mg/kg/injection, schedule: Q04DX003 (ip), vehicle: saline with Tween-80
[6] = endpoint: mean survival time, dose: 200.0 mg/kg/injection, schedule: Q04DX003 (ip), vehicle: saline with Tween-80
[7] = endpoint: mean survival time, dose: 400.0 mg/kg/injection, schedule: Q04DX003 (ip), vehicle: saline with Tween-80
[8] = endpoint: mean survival time, dose: 25.0 mg/kg/injection, schedule: Q04DX003 (ip), vehicle: saline with Tween-80
[9] = endpoint: mean survival time, dose: 50.0 mg/kg/injection, schedule: Q04DX003 (ip), vehicle: saline with Tween-80
[10] = endpoint: mean survival time, dose: 100.0 mg/kg/injection, schedule: Q01DX001 (ip), vehicle: saline with Tween-80
[11] = endpoint: mean survival time, dose: 200.0 mg/kg/injection, schedule: Q01DX001 (ip), vehicle: saline with Tween-80
[12] = endpoint: mean survival time, dose: 400.0 mg/kg/injection, schedule: Q01DX001 (ip), vehicle: saline with Tween-80
[13] = endpoint: mean survival time, dose: 200.0 mg/kg/injection, schedule: Q04DX003 (ip), vehicle: saline
[14] = endpoint: mean survival time, dose: 400.0 mg/kg/injection, schedule: Q04DX003 (ip), vehicle: saline
[15] = endpoint: mean survival time, dose: 400.0 mg/kg/injection, schedule: Q01DX009 (ip), vehicle: saline with Tween-80

In the case of `CC(C)=C(C)c1ccccc1`, the T/C [1] was 103 % of control, the T/C [2] was 106 % of control and the T/C [3] was 103 % of control.

For `Clc1nnc(-c2ccccc2)c(-c2ccccc2)n1`, the T/C [4] was 91 % of control.

With `CC(=O)On1nnc2ccccc2c1=O` the T/C (endpoint: mean survival time, dose: 12.5 mg/kg/injection, schedule: Q01DX001 (ip), vehicle: distilled water + Tween-80) was 101 % of control, the T/C (endpoint: mean survival time, dose: 25.0 mg/kg/injection, schedule: Q01DX001 (ip), vehicle: distilled water + Tween-80) was 100 % of control and the T/C (endpoint: mean survival time, dose: 50.0 mg/kg/injection, schedule: Q01DX001 (ip), vehicle: distilled water + Tween-80) was 95 % of control. For the same molecule, the T/C (endpoint: mean survival time, dose: 100.0 mg/kg/injection, schedule: Q01DX001 (ip), vehicle: distilled water + Tween-80) was 90 % of control.

`COC(=O)C[As+](c1ccccc1)(c1ccccc1)c1ccccc1` was tested, and the T/C (endpoint: mean survival time, dose: 75.0 mg/kg/injection, schedule: Q01DX001 (ip), vehicle: other) was 97 % of control, the T/C (endpoint: mean survival time, dose: 75.0 mg/kg/injection, schedule: Q01DX001 (ip), vehicle: saline) was 103 % of control and the T/C (endpoint: mean survival time, dose: 150.0 mg/kg/injection, schedule: Q01DX001 (ip), vehicle: other) was 91 % of control. For the same molecule, the T/C (endpoint: mean survival time, dose: 150.0 mg/kg/injection, schedule: Q01DX001 (ip), vehicle: saline) was 94 % of control.

For `CC(=O)Oc1[nH]c(=O)c2cccc3c2c1CCC3`, the T/C (endpoint: median survival time, dose: 25.0 mg/kg/injection, schedule: Q01DX009 (ip), vehicle: saline with Tween-80) was 106 % of control, the T/C (endpoint: median survival time, dose: 50.0 mg/kg/injection, schedule: Q01DX009 (ip), vehicle: saline with Tween-80) was 104 % of control and the T/C (endpoint: median survival time, dose: 100.0 mg/kg/injection, schedule: Q01DX009 (ip), vehicle: saline with Tween-80) was 100 % of control and 104 % of control. For the same molecule, the T/C (endpoint: median survival time, dose: 200.0 mg/kg/injection, schedule: Q01DX009 (ip), vehicle: saline with Tween-80) was 97 % of control and 103 % of control and the T/C (endpoint: median survival time, dose: 400.0 mg/kg/injection, schedule: Q01DX009 (ip), vehicle: saline with Tween-80) was 97 % of control and 108 % of control.

For `Oc1ccccc1C=NCCN=Cc1ccccc1O`, the T/C [5] was 90 % of control, the T/C [6] was 100 % of control and the T/C [7] was 92 % of control.

With `C=CC1CN2CCC1CC2C(O)c1ccnc2ccccc12` (configuration not stated) (tested in a mixture with another compound) the T/C [8] was 100 % of control, the T/C (endpoint: mean survival time, dose: 50.0 mg/kg/injection, schedule: Q01DX001 (ip), vehicle: saline with Tween-80) was 100 % of control and the T/C [1] was 96 % of control. For the same molecule, the T/C [9] was 98 % of control, the T/C [10] was 96 % of control and 92 % of control and the T/C [2] was 98 % of control. For the same molecule, the T/C [5] was 93 % of control and 100 % of control, the T/C [11] was 104 % of control and 92 % of control and the T/C [3] was 90 % of control.

In the case of `OC(c1ccccc1)c1cc(-c2ccccc2)c(-c2ccccc2)cc1C(O)c1ccccc1` (configuration not stated), the T/C (endpoint: mean survival time, dose: 12.5 mg/kg/injection, schedule: Q04DX003 (ip), vehicle: saline with Tween-80) was 102 % of control and the T/C [8] was 114 % of control.

For `CN(C)CCSc1nnc(N)s1`, the T/C (endpoint: mean survival time, dose: 200.0 mg/kg/injection, schedule: Q01DX001 (ip), vehicle: saline) was 100 % of control.

With `O=C(/C=C\c1ccnc2ccccc12)c1ccc([N+](=O)[O-])cc1` the T/C (endpoint: mean survival time, dose: 12.5 mg/kg/injection, schedule: Q01DX009 (ip), vehicle: other) was 94 % of control, the T/C (endpoint: mean survival time, dose: 25.0 mg/kg/injection, schedule: Q01DX009 (ip), vehicle: other) was 89 % of control and the T/C (endpoint: mean survival time, dose: 50.0 mg/kg/injection, schedule: Q01DX009 (ip), vehicle: other) was 89 % of control. For the same molecule, the T/C (endpoint: mean survival time, dose: 100.0 mg/kg/injection, schedule: Q01DX009 (ip), vehicle: other) was 92 % of control, the T/C [5] was 97 % of control and the T/C (endpoint: mean survival time, dose: 200.0 mg/kg/injection, schedule: Q01DX009 (ip), vehicle: other) was 97 % of control. The T/C [6] was 94 % of control and the T/C [7] was 91 % of control.

`CC(=O)Nc1cc(C)c(C)cc1[N+](=O)[O-]` was tested, and the T/C [10] was 98 % of control, the T/C [11] was 101 % of control and the T/C [12] was 98 % of control.

With `CO[C@@]12[C@H](COC(N)=O)C3=C(C(=O)C(C)=C(NCCO)C3=O)N1C[C@@H]1N[C@@H]12` the T/C (endpoint: mean survival time, dose: 10.2 mg/kg/injection, schedule: Q01DX001 (ip), vehicle: saline) was 96 % of control, the T/C (endpoint: mean survival time, dose: 15.5 mg/kg/injection, schedule: Q01DX001 (ip), vehicle: saline) was 96 % of control and the T/C (endpoint: mean survival time, dose: 23.2 mg/kg/injection, schedule: Q01DX001 (ip), vehicle: saline) was 112 % of control.

`CCOC(=O)CC1CC(CN)(C(=O)OCC)CO1` (configuration not stated) was tested, and the T/C [5] was 95 % of control, the T/C [6] was 95 % of control and the T/C [7] was 100 % of control.

For `CCC(=O)C(C)N(C)c1ccccc1` (configuration not stated), the T/C [4] was 100 % of control, the T/C [13] was 100 % of control and the T/C [14] was 94 % of control.

For `CC(C)(SCC(N)C(=O)O)c1ccc(-c2ccccc2)cc1` (configuration not stated), the T/C [10] was 88 % of control, the T/C [11] was 86 % of control and the T/C [12] was 91 % of control.

For `Nc1nc(N)c2cc(CNc3ccc(C(=O)NC(CC(=O)O)C(=O)O)c(Cl)c3)ccc2n1` (configuration not stated), the T/C (endpoint: mean survival time, dose: 5.0 mg/kg/injection, schedule: Q01DX001 (ip), vehicle: saline) was 160 % of control.

With `COc1cc(NC(=O)O/N=C/c2ccccn2)cc(OC)c1OC` the T/C [10] was 95 % of control and the T/C [12] was 92 % of control.

With `c1ccc(Cn2cccc2N=Nc2ccccc2)cc1` the T/C (endpoint: mean survival time, dose: 100.0 mg/kg/injection, schedule: Q01DX001 (ip), vehicle: other) was 98 % of control, the T/C (endpoint: mean survival time, dose: 200.0 mg/kg/injection, schedule: Q01DX001 (ip), vehicle: other) was 101 % of control and the T/C (endpoint: mean survival time, dose: 400.0 mg/kg/injection, schedule: Q01DX001 (ip), vehicle: other) was 98 % of control.

For `COc1ccc(/C=C/C(=O)c2ccc3c(c2)OCO3)cc1OC`, the T/C [4] was 91 % of control, the T/C [13] was 93 % of control and the T/C [14] was 95 % of control.

With `C=Cc1cc(OC)c2c(c1)c(=O)oc1c2cc(OC)c2c(O)ccc(C3OC(C(C)O)C(O)C3O)c21` (configuration not stated) the T/C (endpoint: median survival time, dose: 25.0 mg/kg/injection, schedule: Q01DX009 (ip), vehicle: Klucel (hydroxypropylcellulose) (HPC)) was 112 % of control, the T/C (endpoint: median survival time, dose: 36.0 mg/kg/injection, schedule: Q01DX009 (ip), vehicle: Klucel (hydroxypropylcellulose) (HPC)) was 118 % of control and the T/C (endpoint: median survival time, dose: 50.0 mg/kg/injection, schedule: Q01DX009 (ip), vehicle: Klucel (hydroxypropylcellulose) (HPC)) was 112 % of control. For the same molecule, the T/C (endpoint: median survival time, dose: 60.0 mg/kg/injection, schedule: Q01DX009 (ip), vehicle: Klucel (hydroxypropylcellulose) (HPC)) was 109 % of control, the T/C (endpoint: median survival time, dose: 100.0 mg/kg/injection, schedule: Q01DX009 (ip), vehicle: Klucel (hydroxypropylcellulose) (HPC)) was 113 % of control and 100 % of control and the T/C (endpoint: median survival time, dose: 166.7 mg/kg/injection, schedule: Q01DX009 (ip), vehicle: Klucel (hydroxypropylcellulose) (HPC)) was 116 % of control. The T/C (endpoint: median survival time, dose: 277.8 mg/kg/injection, schedule: Q01DX009 (ip), vehicle: Klucel (hydroxypropylcellulose) (HPC)) was 120 % of control and the T/C (endpoint: median survival time, dose: 400.0 mg/kg/injection, schedule: Q01DX009 (ip), vehicle: Klucel (hydroxypropylcellulose) (HPC)) was 111 % of control.

With `CCOC(=O)C1(C#N)C(=O)CSC1=Nc1ccccc1Cl` (configuration not stated) the T/C (endpoint: mean survival time, dose: 25.0 mg/kg/injection, schedule: Q01DX009 (ip), vehicle: saline with Tween-80) was 90 % of control, the T/C [1] was 91 % of control and the T/C [2] was 86 % of control. The T/C [15] was 86 % of control.

In the case of `c1cc2c3c(c1)CCC3CCC2` (configuration not stated), the T/C [2] was 96 % of control, the T/C [3] was 101 % of control and the T/C [15] was 90 % of control.

In the case of `Cc1cccc(OCC2=NCCN2)c1C`, the T/C (endpoint: mean survival time, dose: 6.25 mg/kg/injection, schedule: Q04DX002 (ip), vehicle: saline with Tween-80) was 102 % of control, the T/C (endpoint: mean survival time, dose: 12.5 mg/kg/injection, schedule: Q04DX002 (ip), vehicle: saline with Tween-80) was 109 % of control and the T/C (endpoint: mean survival time, dose: 25.0 mg/kg/injection, schedule: Q04DX002 (ip), vehicle: saline with Tween-80) was 97 % of control.

With `Cn1cnc2cc(N)ccc21` the T/C (endpoint: mean survival time, dose: 50.0 mg/kg/injection, schedule: Q01DX009 (ip), vehicle: saline) was 95 % of control, the T/C (endpoint: mean survival time, dose: 100.0 mg/kg/injection, schedule: Q01DX009 (ip), vehicle: saline) was 98 % of control and the T/C (endpoint: mean survival time, dose: 200.0 mg/kg/injection, schedule: Q01DX009 (ip), vehicle: saline) was 98 % of control.

In the case of `c1ccc(CCc2ccccn2)nc1`, the T/C [8] was 105 % of control, the T/C [9] was 100 % of control and the T/C [5] was 91 % of control and 103 % of control.

With `O=C(CCNC(=O)OCc1ccccc1)NC(CSCc1ccccc1)C(=O)O` (configuration not stated) the T/C (endpoint: mean survival time, dose: 25.0 mg/kg/injection, schedule: Q01DX005 (ip), vehicle: water) was 101 % of control, the T/C (endpoint: mean survival time, dose: 50.0 mg/kg/injection, schedule: Q01DX005 (ip), vehicle: water) was 106 % of control and the T/C (endpoint: mean survival time, dose: 100.0 mg/kg/injection, schedule: Q01DX005 (ip), vehicle: water) was 101 % of control. For the same molecule, the T/C (endpoint: mean survival time, dose: 200.0 mg/kg/injection, schedule: Q01DX005 (ip), vehicle: water) was 108 % of control.
